Square brackets hold non-standard residues; d marks the D form. Primed or numbered codes have the meaning given here. Ends that are not written are not given here. PEG12′ = not defined here; Nle = CCCC[C@H](N)C(=O)O
Legend:
[1] = system: established lung fibrosis induced by bleomycin in male C57BL/6 mice; assay: Therapeutic mouse model of idiopathic pulmonary fibrosis, peptide combined with nintedanib (Example 1); type: in vivo; settings: peptide 5 mg/kg/day IP; for Mean Pro-inflammatory Cytokine Level IFNγ / Mean Pro-inflammatory Cytokine Level IL-1β / Mean Pro-inflammatory Cytokine Level IL-6 / Mean Pro-inflammatory Cytokine Level KC/GRO / Mean Pro-inflammatory Cytokine Level MCP-1 / Mean Pro-inflammatory Cytokine Level MIP-1α / Mean Pro-inflammatory Cytokine Level TNFα: BALF, MSD; for Mean Pro-inflammatory Cytokine Level IFNγ / Mean Pro-inflammatory Cytokine Level IL-1β / Mean Pro-inflammatory Cytokine Level IL-6 / Mean Pro-inflammatory Cytokine Level KC/GRO / Mean Pro-inflammatory Cytokine Level MCP-1 / Mean Pro-inflammatory Cytokine Level MIP-1α / Mean Pro-inflammatory Cytokine Level TNFα / Mean (SEM) Number of Lymphocytes in BALF / Mean (SEM) Number of Macrophages in BALF / Mean (SEM) Number of Neutrophils in BALF: Day 21, nintedanib 60 mg/kg/day PO; for Mean (SEM) Normalized Lung Weight / Mean (SEM) Ashcroft Score / Mean (SEM) Collagen Deposition Score in Lung Tissue / Mean (SEM) Soluble Collagen Content in BALF: Day 21 after 14 days of daily treatment, nintedanib 60 mg/kg/day PO; for Mean (SEM) Ashcroft Score: H&E; for Mean (SEM) Collagen Deposition Score in Lung Tissue: Masson's Trichrome; for Mean (SEM) Soluble Collagen Content in BALF: Sircol assay
Description: The effect of combining the peptides of Formula I with a second antifibrotic drug on the progression of established lung fibrosis were assessed by monitoring lung fibrosis, lung weight, inflammatory cells in bronchoalveolar lavage fluid (BALF), soluble collagen in BALF, cytokine secretion, and body weight change in a therapeutic mouse model of idiopathic pulmonary fibrosis. Lung fibrosis was induced in lungs of male C57BL/6 mice between the ages of 6 to 8 weeks by nasophayngeal administration of bleomycin (1.5U/kg using bleomycin clinical formulation diluted in PBS). A control group of animals were administered saline by the nasopharyngeal route (no-bleomycin control group). After one week, bleomycin-treated animals were randomized to treatment groups (N=10 per group) by body weight and treated daily with vehicle control, nintedanib (60 mg/kg/day PO), peptide (5 mg/kg/day by intraperitoneal injection), or the combination of nintedanib (60 mg/kg/day PO) and peptide (5 mg/kg/day by intraperitoneal injection). After 14 days of treatment (Day 21), lungs were removed and weighed. The post-caval lobe was separated and snap frozen. The lungs were flushed with Hanks Buffer and bronchoalveolar lavage fluid (BALF) was harvested from each animal Differential cell counts in BALF were obtained. Levels of pro-inflammatory cytokines in BALF were determined using a meso scale discovery (MSD) system. Slides were prepared from the remaining BALF leukocytes, fixed and stained with May Geimsa stain and the differential counts were recorded manually. BALF was evaluated for soluble collagen using a Sircol assay. Lungs were fixed in 10% neutral buffered formalin (NBF) for histopathological analysis. Fibrosis was assessed by histopathological analysis of H&E stained mouse lungs using an Ashcroft scoring system. Collagen deposition in lung tissue was assessed by histopathological analysis of Masson's Trichrome stained mouse lungs using a standard scoring system for severity.

[2] = system: established lung fibrosis induced by bleomycin in male C57BL/6 mice; assay: Therapeutic mouse model of idiopathic pulmonary fibrosis, peptides alone (Example 2); type: in vivo
Description: The effect of the peptides on the progression of established lung fibrosis were assessed by monitoring lung fibrosis, lung weight, inflammatory cells in bronchoalveolar lavage fluid (BALF), soluble collagen in BALF, cytokine secretion in BALF, and body weight change in a therapeutic mouse model of idiopathic pulmonary fibrosis. Lung fibrosis was induced in lungs of male C57BL/6 mice between the ages of 6 to 8 weeks by nasophayngeal administration of bleomycin (1.5 U/kg using bleomycin clinical formulation diluted in PBS). A control group of animals were administered saline by the nasopharyngeal route (no-bleomycin control group). After one week, bleomycin-treated animals were randomized to treatment groups (N=10 per group) by body weight and treated daily with vehicle control, nintedanib positive control (60 mg/kg/day PO) or peptide (5 or 15 mg/kg/day by intraperitoneal injection). After 14 days of treatment (Day 21), lungs were removed and weighed. The post-caval lobe was separated and snap frozen. The lungs were flushed with Hanks Buffer and bronchoalveolar lavage fluid (BALF) was harvested from each animal Total BALF leukocyte were counted. Slides were prepared from the remaining BALF leukocytes, fixed and stained with May Geimsa stain and the differential counts were recorded manually. BALF was evaluated for soluble collagen using a Sircol assay. Lungs were fixed in 10% neutral buffered formalin (NBF) for histopathological analysis. Fibrosis was assessed by histopathological analysis of H&E stained mouse lungs using an Ashcroft scoring system. Collagen deposition in lung tissue was assessed by histopathological analysis of Masson's Trichrome stained mouse lungs using a standard scoring system for severity.

Compound	Mean Pro-inflammatory Cytokine Level IFNγ [1]	Mean Pro-inflammatory Cytokine Level IL-1β [1]	Mean Pro-inflammatory Cytokine Level IL-6 [1]	Mean Pro-inflammatory Cytokine Level KC/GRO [1]	Mean Pro-inflammatory Cytokine Level MCP-1 [1]	Mean Pro-inflammatory Cytokine Level MIP-1α [1]	Mean Pro-inflammatory Cytokine Level TNFα [1]	Mean (SEM) Number of Lymphocytes in BALF [1]	Mean (SEM) Number of Macrophages in BALF [1]	Mean (SEM) Number of Neutrophils in BALF [1]	Mean (SEM) Normalized Lung Weight [1]	Mean (SEM) Ashcroft Score [1]	Mean (SEM) Collagen Deposition Score in Lung Tissue [1]	Mean (SEM) Ashcroft Score ([2]; Day 21, 15 mg/kg/day IP)	Mean (SEM) Collagen Content in BALF ([2]; Day 21, 15 mg/kg/day IP)	Mean (SEM) Collagen Deposition Score in Lung Tissue ([2]; Day 21, 15 mg/kg/day IP)	Mean (SEM) Normalized Lung Weight ([2]; Day 21, 15 mg/kg/day IP)	Mean (SEM) Number of Lymphocytes in BALF ([2]; Day 21, 15 mg/kg/day IP)	Mean (SEM) Number of Macrophages in BALF ([2]; Day 21, 15 mg/kg/day IP)	Mean (SEM) Number of Neutrophils in BALF ([2]; Day 21, 15 mg/kg/day IP)	further results
COC(=O)c1ccc2c(c1)NC(=O)/C2=C(\Nc1ccc(N(C)C(=O)CN2CCN(C)CC2)cc1)c1ccccc1 [Nintedanib, nintedanib, reference compound]	0.019 pg/mL	0.50 pg/mL	384 pg/mL	29.3 pg/mL	35.8 pg/mL	1.05 pg/mL	2.76 pg/mL	18700 (5200)	49200 (6450)	3040 (1370)	1.49 (0.17)	2.82 (0.39)	2.22 (0.43)								Mean (SEM) Soluble Collagen Content in BALF [1]: 0.048 (0.005) mg/mL; Mean (SEM) Ashcroft Score ([2]; Day 21, 60 mg/kg/day PO): 2.35 (0.38); Mean (SEM) Collagen Content in BALF ([2]; Day 21, 60 mg/kg/day PO): 0.061 (0.011) mg/mL; Mean (SEM) Collagen Deposition Score in Lung Tissue ([2]; Day 21, 60 mg/kg/day PO): 2.20 (0.36); Mean (SEM) Normalized Lung Weight ([2]; Day 21, 60 mg/kg/day PO): 1.16 (0.07); Mean (SEM) Number of Lymphocytes in BALF ([2]; Day 21, 60 mg/kg/day PO): 1180 (631); Mean (SEM) Number of Macrophages in BALF ([2]; Day 21, 60 mg/kg/day PO): 5030 (823); Mean (SEM) Number of Neutrophils in BALF ([2]; Day 21, 60 mg/kg/day PO): 201 (77)
RVIR(Nle)CLGVGLLGDL(dA)GK{PEG12} (RVIR[Nle]CLGVGLLGDL[dA]GK(PEG12′); also: homodimer, disulfide at Cys6) [SEQ ID NO: 32]	0.020 pg/mL	0.07 pg/mL	269 pg/mL	21.5 pg/mL	29.7 pg/mL	0.95 pg/mL	3.05 pg/mL	28600 (5480)	86600 (7070)	5850 (2220)	1.57 (0.20)	3.12 (0.45)	2.56 (0.48)	2.26 (0.35)	0.091 (0.016) mg/mL	2.10 (0.35)	1.20 (0.05)	1270 (584)	5030 (974)	96 (64)	Mean (SEM) Soluble Collagen Content in BALF [1]: 0.058 (0.005) mg/mL; Mean (SEM) Ashcroft Score ([2]; Day 21, 5 mg/kg/day IP): 2.26 (0.27); Mean (SEM) Collagen Content in BALF ([2]; Day 21, 5 mg/kg/day IP): 0.074 (0.019) mg/mL; Mean (SEM) Collagen Deposition Score in Lung Tissue ([2]; Day 21, 5 mg/kg/day IP): 2.20 (0.25); Mean (SEM) Normalized Lung Weight ([2]; Day 21, 5 mg/kg/day IP): 1.17 (0.03); Mean (SEM) Number of Lymphocytes in BALF ([2]; Day 21, 5 mg/kg/day IP): 946 (579); Mean (SEM) Number of Macrophages in BALF ([2]; Day 21, 5 mg/kg/day IP): 5530 (1090); Mean (SEM) Number of Neutrophils in BALF ([2]; Day 21, 5 mg/kg/day IP): 61 (61)
RVIRACLGVGLLGDL(dA)GK{PEG12} (RVIRACLGVGLLGDL[dA]GK(PEG12′); also: homodimer) [SEQ ID NO: 30]	0.037 pg/mL	0.03 pg/mL	64.6 pg/mL	16.7 pg/mL	7.59 pg/mL	0.52 pg/mL	2.85 pg/mL	8930 (3350)	41700 (5740)	1830 (1080)	1.36 (0.10)	2.93 (0.33)	2.30 (0.26)	2.00 (0.37)	0.063 (0.007) mg/mL	1.80 (0.33)	1.22 (0.11)	896 (254)	3780 (559)	122 (88)	Mean (SEM) Soluble Collagen Content in BALF [1]: 0.067 (0.013) mg/mL; Mean (SEM) Ashcroft Score ([2]; Day 21, 5 mg/kg/day IP): 1.92 (0.21); Mean (SEM) Collagen Content in BALF ([2]; Day 21, 5 mg/kg/day IP): 0.071 (0.020) mg/mL; Mean (SEM) Collagen Deposition Score in Lung Tissue ([2]; Day 21, 5 mg/kg/day IP): 1.67 (0.29); Mean (SEM) Normalized Lung Weight ([2]; Day 21, 5 mg/kg/day IP): 1.15 (0.03); Mean (SEM) Number of Lymphocytes in BALF ([2]; Day 21, 5 mg/kg/day IP): 1210 (664); Mean (SEM) Number of Macrophages in BALF ([2]; Day 21, 5 mg/kg/day IP): 5070 (1130); Mean (SEM) Number of Neutrophils in BALF ([2]; Day 21, 5 mg/kg/day IP): 0 (0)
RVIRACLGVGLLGDLAGK{PEG12} (RVIRACLGVGLLGDLAGK(PEG12′); also: homodimer, disulfide at Cys6) [SEQ ID NO: 36]														3.33 (0.33)	0.068 (0.008) mg/mL	2.89 (0.35)	1.32 (0.12)	884 (442)	6430 (930)	165 (140)	Mean (SEM) Ashcroft Score ([2]; Day 21, 5 mg/kg/day IP): 2.65 (0.40); Mean (SEM) Collagen Content in BALF ([2]; Day 21, 5 mg/kg/day IP): 0.081 (0.010) mg/mL; Mean (SEM) Collagen Deposition Score in Lung Tissue ([2]; Day 21, 5 mg/kg/day IP): 2.50 (0.37); Mean (SEM) Normalized Lung Weight ([2]; Day 21, 5 mg/kg/day IP): 1.19 (0.06); Mean (SEM) Number of Lymphocytes in BALF ([2]; Day 21, 5 mg/kg/day IP): 987 (316); Mean (SEM) Number of Macrophages in BALF ([2]; Day 21, 5 mg/kg/day IP): 5180 (1030); Mean (SEM) Number of Neutrophils in BALF ([2]; Day 21, 5 mg/kg/day IP): 113 (60)
RVIRMCLGVGLLGDLAGK{PEG12} (RVIRMCLGVGLLGDLAGK(PEG12′); also: homodimer, disulfide at Cys6) [SEQ ID NO: 28]														2.24 (0.25)	0.080 (0.016) mg/mL	2.00 (0.26)	1.27 (0.05)	1210 (233)	6340 (792)	261 (117)	
